Test results taken from patent publication US7709443B2, “Cyclic peptide antitumor agents” (Northwestern University, priority 2003, dated 2010).
In brackets after ≈: the same amount, converted by molar mass. Where two headings read alike, the source gives them in different places. Square brackets hold non-standard residues; d marks the D form. Peptide text beside a SMILES is read from it. Phe(4-Br) = N[C@@H](Cc1ccc(Br)cc1)C(=O)O; Phe(4-I) = N[C@@H](Cc1ccc(I)cc1)C(=O)O; NMeF = CN[C@@H](Cc1ccccc1)C(=O)O; Hica(2S) = CC(C)C[C@H](O)C(=O)O; NMeL = CN[C@@H](CC(C)C)C(=O)O; NMeV = CN[C@H](C(=O)O)C(C)C; Aib = CC(C)(N)C(=O)O

Tests used:
[1] = test system: HCT-116 (human colon carcinoma); test: cells; details: for times more potent than sansalvamide A toward HCT-116: relative to sansalvamide A
From the text: The HCT-116 human colon adenocarcinoma screen is a tissue culture first line assay to detect inherent cytotoxicity against malignant cancer cells. This strain is considered to be an “indicator strain” by many for the selection of inhibitors that target solid tumors. The assay is a calorimetric endpoint assay which can be produced in 96-well format trays. Data are acquired by plate reader and dose response curves are produced by computer analysis. […] This assay is run routinely as described below and would be understood in the art.
1. Media (1000 mL McCoy's 5A Medium, 114 mL Fetal Bovine Serum, 25 mL Hepes buffer solution (IM), 12.5 mL Penicillin-Streptomycin solution)
2. Cell line (HCT-116, human colon cancer cell line)
3. Indicator (MTS and PMS in DPBS)
5. Standard anticancer drug (etoposide (VP-16); stock is 4 mg/mL in DMSO
6. DPBS (without CaCl2 and MgCl2)
1. Remove medium from the cells and rinse with 10 mL sterile DPBS.
3. Allow to stand in hood for 1 minute.
4. Remove trypsin with sterile pipette.
5. Allow flask to stand in hood for 2-5 minutes.
6. Add 10 mL of media to flask and pipette up and down to gently break up cell clumps.
7. Count the number of cells using a hemacytometer.
8. Determine # of plates needed, and total volume of cell suspension (16 or 18 mL per plate).
9. Dilute cells to a final concentration of 2.5×10^4 cells/mL in a sterile flask.
10. Pour cell suspension into a sterile trough.
For Serial Dilution Plates
1. Add 175 μL to each well in the first row of a 96 well plate.
2. Add 150 μL to the rest of the wells in A1-A10 & A12.
3. In row 11 add 150 μL cell suspension to the first 6 wells and only media to the last two.
For Single Concentration Plates
1. Add 150 μL of sterile media to G11 & H11.
2. Add 150 μL of cell suspension to all other wells.
3. Add 25 μL more to well H1.
Incubate plates overnight at 37° C. & 5% CO2
1. Add 25 μL of test compounds @ 10 mg/mL to A1-A10, 25 μL of DMSO to A11 & 25 μL of etoposide (4 mg/mL) to A12.
2. Using a twelve channel pipette, mix well then remove 50 μL from the first row and transfer to the next row, repeat down the plate until row F, then remove tip # 11 and continue down plate discarding the last 50 μL.
3. Incubate plates for 72 h.
1. Add 20 μL of MTS/PMS solution to each well.
3. Read plates @490 nm on plate reader.

[2] = test system: Caspase-3 activity in PC-3 cells; test: Caspase-3 activity, fluorometric assay; format: cell-based, human; details: relative to DMSO and staurosporin controls
Experimental: Caspase-3 is a mediator of apoptosis, and induction of Caspase-3 activity indicates induction of apoptosis. Activity of Caspase-3 was measured by a fluorometric assay, as described in the literature, referenced above.

[3] = test system: WM115 (Melanoma) human cancer cell line; details: three days
Experimental: (§4) Cells were plated at 5,000 cells per well in 24-well plates, treated for three days, then counted. Cell number was normalized to the number of cells in untreated control (DMSO) cells, also after three days.

[4] = test system: MDA-MB231 (Breast) human cancer cell line; details: three days
Experimental: as §4

[5] = test system: PC-3 (Prostate) human cancer cell line; details: three days
Experimental: as §4

AsPC-1 cells = test: Cell proliferation assay (Guava ViaCount cell number), AsPC-1; format: cell-based, human; details: AsPC-1, 10 μM, 72 hours, vs vehicle (DMSO)
Experimental: (§1) Given the results of the preceding example, several compounds of this invention were tested against human pancreatic cancer cell lines. Two cancer cell lines were selected: S2-013 (well-differentiated) and AsPC-1 (poorly differentiated). These cell lines were purchased from American Type Culture Collection (Manassas, Va.). Both cell lines were grown in DMEM and plated as monolayers in the medium supplemented with 10% fetal bovine serum in a humidified atmosphere of […] and 5% CO2 at 37° C. The cells were regularly seeded into 75 cm^2 flasks with media changes every second or third day. For experiments, cells were grown to 70% confluence, digested with trypsin-EDTA, and plated in either 6-, 24-, or 48-well plates.
(§2) Cell Proliferation Assay. Cells were regularly seeded into three 6-well plates and incubated at 37° C. for 24 hours. Cells were then cultured in serum-free medium for another 24 hours and treated in fresh serum-free medium with or without 10 μM of cyclic peptide 1k for 24, 48, and 72 hours. At the end of each time period, the cells were trypsinized to produce a single cell suspension, and the cell number in each well was determined using Guava Technologies=ViaCount Assay (Guava Technologies Inc, Hayward, Calif.).
(§3) Statistical Analysis. Data were analyzed by ANOVA with Dunnett's or Bonferoni's corrections for multiple comparisons, as appropriate. This analysis was performed with the Prism software package (GraphPad, San Diego, Calif.). Data were expressed as mean±SEM.

S2-013 cell line = test: Cell proliferation assay (Guava ViaCount cell number), S2-013; format: cell-based, human; details: S2-013, 10 μM, 72 hours, vs vehicle (DMSO)
Experimental: as §1, §2, §3

Row | Structure (SMILES) | IC50 ([1]; Homo sapiens, HCT-116) | Caspase-3 activity [2] | Fold Induction Over DMSO control ([3]; WM115, 1 μM) | Fold Induction Over DMSO control ([4]; MDA-MB231, 1 μM) | Fold Induction Over DMSO control ([5]; PC-3, 1 μM) | Fold Induction Over DMSO control ([3]; WM115, 10 μM) | Fold Induction Over DMSO control ([4]; MDA-MB231, 10 μM) | Fold Induction Over DMSO control ([5]; PC-3, 10 μM) | IC50 ([1]; HCT-116 bioassay, Table 1) | times more potent than sansalvamide A toward HCT-116 [1] | change in number of cells (AsPC-1 cells) | change in number of cells (S2-013 cell line)
1 | COc1cc([C@@H]2c3cc4c(cc3[C@@H](O[C@@H]3O[C@@H]5CO[C@@H](C)O[C@H]5[C@H](O)[C@H]3O)[C@H]3COC(=O)[C@H]23)OCO4)cc(OC)c1O [etoposide, reference compound] | 1.5 µg/mL (≈ 2.55 µM) |  |  |  |  |  |  |  |  |  |  | 
2 | CC(C)C[C@@H]1NC(=O)[C@H](C(C)C)NC(=O)[C@H](CC(C)C)NC(=O)[C@H](CC(C)C)N(C)C(=O)[C@H](Cc2ccc(Br)cc2)NC1=O [Compound 1c] (cyclo([Phe(4-Br)][NMeL]LVL)) |  | induced | 1.10 | 0.56 | 0.75 |  |  |  |  |  |  | 
3 | CC(C)C[C@@H]1NC(=O)[C@H](Cc2ccc(Br)cc2)NC(=O)[C@H](CC(C)C)NC(=O)[C@H](C(C)C)N(C)C(=O)[C@H](CC(C)C)NC1=O [Compound 1g] (cyclo([Phe(4-Br)]LL[NMeV]L)) |  |  | 1.02 | 0.88 | 0.74 | 0.84 | 0.31 | 0.67 |  |  |  | 
4 | CC(C)C[C@@H]1NC(=O)[C@H](C(C)C)NC(=O)[C@H](CC(C)C)OC(=O)[C@H](CC(C)C)NC(=O)[C@H](Cc2ccc(I)cc2)NC1=O (cyclo(L[Phe(4-I)]L[Hica(2S)]V)) |  |  |  |  |  |  |  |  | 11.3 µg/mL (≈ 15.9 µM) |  |  | 
5 | CC(C)C[C@@H]1NC(=O)[C@H](Cc2ccc(Br)cc2)NC(=O)[C@H](CC(C)C)NC(=O)[C@H](C(C)C)NC(=O)[C@H](CC(C)C)NC1=O [Compound 1a] (cyclo([Phe(4-Br)]LLVL)) |  |  | 0.85 | 0.95 | 0.94 | 0.99 | 0.60 | 0.74 |  |  |  | 
6 | CC(C)C[C@@H]1NC(=O)[C@H](Cc2ccccc2)NC(=O)[C@H](CC(C)C)N(C)C(=O)[C@H](C(C)C)NC(=O)[C@H](CC(C)C)NC1=O [Compound 1h] (cyclo(FLLV[NMeL])) |  |  | 1.13 | 1.01 | 0.79 | 0.51 | 0.28 | 0.64 |  |  |  | 
7 | CC(C)C[C@@H]1NC(=O)[C@H](CC(C)C)NC(=O)[C@H](Cc2ccccc2)N(C)C(=O)[C@H](CC(C)C)NC(=O)[C@H](C(C)C)NC1=O [Compound 1j] (cyclo([NMeF]LLVL)) |  |  | 1.75 | 0.78 | 0.86 | 0.60 | 0.82 | 0.8 |  |  |  | 
8 | CC(C)C[C@@H]1NC(=O)[C@H](C(C)C)NC(=O)[C@H](CC(C)C)OC(=O)[C@H](CC(C)C)NC(=O)[C@H](Cc2ccc(Br)cc2)NC1=O (cyclo(L[Phe(4-Br)]L[Hica(2S)]V)) |  |  |  |  |  |  |  |  | 4.5 µg/mL (≈ 6.76 µM) |  |  | 
9 | CC(C)C[C@@H]1NC(=O)[C@H](C(C)C)NC(=O)[C@H](CC(C)C)N(C)C(=O)[C@H](CC(C)C)NC(=O)[C@H](Cc2ccc(Br)cc2)NC1=O [Compound 1e] (cyclo([Phe(4-Br)]L[NMeL]VL)) |  |  | 0.89 | 1.20 | 0.62 | 0.95 | 0.82 | 0.82 |  |  |  | 
10 | CC(C)C[C@@H]1NC(=O)[C@H](C(C)C)NC(=O)[C@H](CC(C)C)NC(=O)[C@H](CC(C)C)N(C)C(=O)[C@H](Cc2ccccc2)NC1=O [Compound 1b] (cyclo(F[NMeL]LVL)) |  |  | 1.02 | 0.87 | 1.24 | 3.02 | 0.71 | 0.81 |  |  |  | 
11 | CC(C)C[C@@H]1NC(=O)[C@H](C(C)C)NC(=O)[C@H](CC(C)C)N(C)C(=O)[C@H](CC(C)C)NC(=O)[C@H](Cc2ccc(Br)cc2)NC1=O [drawing 9] (cyclo([Phe(4-Br)]L[NMeL]VL)) |  |  |  |  |  |  |  |  | 0.11 µg/mL (≈ 0.162 µM) | ~100 times |  | 
12 | CC(C)C[C@@H]1NC(=O)[C@H](C(C)C)NC(=O)[C@H](CC(C)C)N(C)C(=O)[C@H](CC(C)C)NC(=O)[C@H](Cc2ccccc2)NC1=O [Compound 1d] (cyclo(FL[NMeL]VL)) |  |  | 0.87 | 1.09 | 0.63 | 0.98 | 0.91 | 0.52 |  |  |  | 
13 | CC(C)C[C@@H]1NC(=O)[C@H](Cc2ccccc2)NC(=O)[C@H](CC(C)C)NC(=O)[C@H](C(C)C)N(C)C(=O)[C@H](CC(C)C)NC1=O [Compound 1f] (cyclo(FLL[NMeV]L)) |  |  | 1.00 | 1.04 | 0.92 | 1.06 | 0.26 | 0.74 |  |  |  | 
14 | CC(C)C[C@@H]1NC(=O)[C@H](Cc2ccccc2)NC(=O)[C@H](Cc2ccccc2)N(C)C(=O)[C@H](Cc2ccccc2)NC(=O)C(C)(C)NC(=O)[C@H](CC(C)C)N(C)C(=O)[C@@H]2CCCN2C1=O [Scytalidamide A, reference compound] (cyclo(F[NMeF]FLP[NMeL][Aib])) |  |  | 1.01 | 2.75 | 0.63 | 0.07 | 0.11 | 0.15 |  |  | significant (p<0.05) decrease | exception
15 | CC(C)C[C@@H]1NC(=O)[C@H](Cc2ccccc2)NC(=O)[C@H](CC(C)C)NC(=O)[C@H](C(C)C)NC(=O)[C@H](CC(C)C)NC1=O [Compound 1, sansalvamide A peptide] (cyclo(FLLVL)) |  |  | 0.92 | 0.91 | 1.03 | 0.56 | 0.69 | 0.90 | 0.98 µg/mL (≈ 1.67 µM) | about 10 times |  | 
